Data taken from patent US20250381166A1, “Cannabis-Derived Flavonoids And Related Methods” (CANURTA INC., priority 2022, published 2025).

What was measured:
nuclear Arc protein = settings: 16.7 μM co-applied with recombinant BDNF for 6 h; cited from earlier work
nuclear Arc = test: BDNF-induced nuclear Arc, fluorescent immunocytochemistry, primary cortical neurons; type: cell-based, mouse; settings: 10 μM co-treated with BDNF; vs BDNF-alone control
Protocol: Indirect immunofluorescence detection of antigens was carried out using cortical neurons cultured on poly-L-lysine/laminin coated coverslips in 24-well plates at a density of 0.1′10^6 per well. After experimental treatment, cells were washed twice with phosphate-buffered saline (PBS) and fixed for 30 min at room temperature with 4% paraformaldehyde in PBS. After fixation, cells were washed twice with PBS, permeabilized with PBST (PBS and 0.25% Triton X-100) for 20 min, blocked in blocking solution (5% goat non-immune serum in PBS) for another 30 min, and finally incubated overnight at 4° C. with the first primary antibody in blocking solution. The next day, coverslips were extensively washed with PBS and incubated for 2 hours at room temperature in the appropriate fluorophore-conjugated secondary antibody solution [Alexa Fluor 488-, Alexa Fluor 594, or Alexa Fluor 647-conjugated secondary antibody (Molecular Probes, Invitrogen) in blocking solution]. After washes with PBS, the coverslips were incubated again overnight in primary antibody solution for the second antigen, and the procedure for conjugation of the fluorophore-conjugated secondary antibody was repeated as above. Finally, cell nuclei were counterstained with 4′,6-diamidino-2-phenylindole (DAPI), and coverslips were mounted on glass slides with ProLong Antifade reagent (Invitrogen).
Cells cultured on coverslips from three independent biological replicates were imaged with a Nikon Eclipse Ti2-E inverted microscope equipped with a motorized stage, image stitching capability, and a 60× objective (Nikon Instruments, Melville, NY). Image analysis was performed with ImageJ and NIS Elements and the following procedure was used to quantify nuclear Arc level in response to BDNF-TrkB signaling. First, original raw tiff files were opened and the nucleus of all neurons in the image was located based on MAP2 immunostaining, then average pixel intensity corresponding to Arc immunofluorescence was measured for a 30-pixel spot positioned at the center of the nuclear compartment. […]

A172 GBM cells [1] = test: AlamarBlue cell viability, A172; type: cell-based; settings: 24, 48 and 72 hours, vs DMSO
Protocol: (§1) FIG. 6. Cannflavins A and B reduce the viability of Glioblastoma cells. Cell viability was measured using an AlamarBlue reaction after 24, 48, and 72 hours of treatment. […] Graphs represent mean±SEM.

A172 GBM cells [2] = test: Boyden Chamber invasion assay; type: cell-based; settings: 10 μM; for GBM cell invasion: 24 hours
Protocol: FIG. 9. […] Boyden Chamber assay was performed on A172 GBM cells to analyze minimal doses (10 μM) of TrkB inhibitors on preventing GBM cell invasion. Cells were pretreated in low serum media for 24 hours. Bottoms of transwell inserts were coated with fibronectin and tops were coated with Matrigel prior to cells being seeded with treatment media (low serum; n=3 per treatment). After 24 hours, cells were cleaned off the top of the Matrigel, and cells that invaded into the pores of the transwell were stained with 1% Crystal Violet and (A) imaged at 20×.

Mapk = Mapk phosphorylation, western blot, Neuro2a cells stably expressing Ntrk2-Myc-FLAG; type: cell-based; settings: with BDNF
U87 GBM cells [3] = test: AlamarBlue cell viability, U87; type: cell-based; settings: 24, 48 and 72 hours, vs DMSO
Protocol: as §1

[4] = system: Neuro2a cells stably expressing Ntrk2-Myc-FLAG; test: Neurite outgrowth assessment; type: cell-based; settings: 10 μM with BDNF
Protocol: For neurite outgrowth assay, Neuro2a cells were cultured in DMEM [supplemented with 10% HyClone FetalClone II serum (Cytiva, Global Life Sciences Solutions, Marlborough, MA), penicillin (50 units/ml), and streptomycin (50 μg/ml)] and transfected overnight using Lipofectamine 2000 (Invitrogen) according to the manufacturer's protocol.
Neuro2A cells transfected with a pCMV6-Ntrk2-Myc-DDK (FLAG) construct were selected with G418 (Geneticin) to produce a stable cell line that constitutively expresses tagged-TrkB. For neurite outgrowth assessment, cells were seeded on 15 mm glass coverslips in 12-well plates at a density of 2.0×10^4 per well. […] Phase contrast digital images were collected with a 20× objective 48 h after plating and the total number of viable cells, total number of neurites, and cells with neurites longer than 2 cells in diameter were counted (five fields per dish, three wells per condition).

medulloblastoma cell = settings: TrkB inhibition; cited from earlier work
U87 GBM cells [5] = test: Scratch migration analysis, U87; settings: 24 hours of treatment
A172 GBM cells [6] = test: Scratch migration analysis, A172; settings: 24 hours of treatment
Arc mRNA = Arc mRNA real-time reverse transcriptase PCR, primary cortical neurons; type: cell-based, mouse; settings: 10 μM with BDNF; vs BDNF-alone control
U87 GBM cells [7] = test: LDH cytotoxicity assay, U87; type: cell-based; settings: 24 hours, compared to DMSO
[8] = system: prostaglandin E2 production; settings: inhibitors of prostaglandin E2 production; cited from earlier work
A172 GBM cells [9] = test: LDH cytotoxicity assay, A172; type: cell-based; settings: 24 hours, compared to DMSO
[10] = system: 320 distinct nonolfactory human GPCRs; test: PRESTO-Tango GPCR assay (GPCRome panel); settings: 10 μM; quadruplicate
Arc protein = test: BDNF-induced Arc expression, western blot, primary cortical neurons; type: cell-based, mouse; settings: BDNF co-treatment, tested 1 to 20 μM
Protocol: The following procedure was used to quantify western blot analyses. First, equal quantity of protein lysate was analyzed by SDS-PAGE for each biological replicate. Second, the exposure time of the film to the ECL chemiluminescence was the same for each biological replicate. Third, all the exposed films were scanned on a HP Laser Jet Pro M377dw scanner in grayscale at a resolution of 300 dpi. Fourth, the look-up table (LUT) of the scanned tiff images was inverted and the intensity of each band was individually estimated using the selection tool and the histogram function in Adobe Photoshop CC 2021 software. Finally, the intensity of each band was divided by the intensity of its respective loading control (b-actin) to provide the normalized value used for statistical analysis.

[11] = system: Ras-Raf-MEK-MAPK and PI3K/AKT/mTOR cascades; test: Signaling downstream of TrkB, western blot, primary cortical neurons; settings: BDNF-induced increase; 0, 1, 5, 10, 20 μM
Protocol: Developing cerebral cortex from E16.5 CD-1 mouse embryos were dissected and then dissociated in trypsin solution for 15 min followed by three washes with phosphate-buffered saline (PBS). Trypsinized tissue was gently triturated to produce single cell suspension. Next, cells were seeded in poly-L-lysine/laminin coated 6-well plates at a density of 1.5×10^6 per well and maintained in Neurobasal medium containing B27 supplement (2%, Invitrogen, Grand Island, NY), penicillin (50 U/ml, Invitrogen), streptomycin (50 μg/ml, Invitrogen) and glutamine (1 mM, Sigma). For experiments involving BDNF (PeproTech, Rocky Hill, NJ), the growth factor was added directly to the culture medium at a final concentration of 100 ng/ml for the indicated period of time.
For western blot analyses, cells were collected by scraping in ice-cold radioimmunoprecipitation assay (RIPA) buffer (50 mM tris-HCl [pH 8.0], 300 mM NaCl, 0.5% Igepal-630, 0.5% deoxycholic acid, 0.1% SDS, 1 mM EDTA) supplemented with a cocktail of protease inhibitors (Complete Protease Inhibitor without EDTA, Roche Applied Science, Indianapolis, IN) and phosphatase inhibitors (Phosphatase Inhibitor Cocktail 3, Sigma-Aldrich). One volume of 2× Laemmli buffer (100 mM tris-HCl [pH 6.8], 4% SDS, 0.15% bromophenol blue, 20% glycerol, 200 mM b-mercaptoethanol) was added and the extracts were boiled for 5 min. Samples were adjusted to an equal concentration after protein concentrations were determined using the BCA assay (Pierce, Thermo Fisher Scientific). Lysates were separated using SDS-PAGE (polyacrylamide gel electrophoresis) and transferred to a nitrocellulose membrane. After transfer, the membrane was blocked in TBST (tris-buffered saline and 0.1% Tween 20) supplemented with 5% nonfat powdered milk and probed with the indicated primary antibody at 4° C. overnight. After washing with TBST, the membrane was incubated with the appropriate secondary antibody and visualized using enhanced chemiluminescence (ECL) reagents according to the manufacturer's guidelines (Pierce, Thermo Fisher Scientific).

GPR150 = target: T1, GPR150 (Homo sapiens, UniProt Q8NGU9); test: PRESTO-Tango GPCR assay, GPR150; type: cell-based; settings: 10 μM
T1 construct: expressed in transfected cells
T1 sequence (Q8NGU9 whole entry): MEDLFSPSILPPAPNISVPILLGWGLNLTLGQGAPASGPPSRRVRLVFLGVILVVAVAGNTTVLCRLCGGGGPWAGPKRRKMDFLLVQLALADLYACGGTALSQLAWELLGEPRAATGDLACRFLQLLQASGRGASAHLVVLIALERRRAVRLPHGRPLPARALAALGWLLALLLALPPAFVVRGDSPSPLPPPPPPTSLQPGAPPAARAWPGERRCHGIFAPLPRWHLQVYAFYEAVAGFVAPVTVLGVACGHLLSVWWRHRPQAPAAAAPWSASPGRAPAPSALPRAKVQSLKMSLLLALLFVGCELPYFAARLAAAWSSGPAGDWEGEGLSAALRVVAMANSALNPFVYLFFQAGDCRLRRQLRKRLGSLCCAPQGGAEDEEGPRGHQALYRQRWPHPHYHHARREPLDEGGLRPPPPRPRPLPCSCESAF

In the case of `O=c1c(-c2ccc(O)cc2)coc2cc(O)ccc12` [daidzein], the “nuclear Arc protein level” value (nuclear Arc protein) is given as “enhance nuclear Arc protein level above the control measure” and the “percentage of nuclei with Arc expression above threshold (Arc-positive neuronal abundance)” value (“percentage of nuclei” below) (nuclear Arc) is given as “moderate increase”.

In the case of `O=C(Nc1ccccc1C(=O)NC1CCCCNC1=O)c1cc2ccccc2s1` (stereo not shown) [ANA-12], the “cell viability (AlamarBlue)” value (A172 GBM cells [1]) was “reduced cell viability”, the GBM cell invasion (A172 GBM cells [2]) was “decrease in GBM cell invasion” and the P-Mapk levels (Mapk) was “did not observe a decrease”. For the same compound, the “cell viability (AlamarBlue)” value (U87 GBM cells [3]) was “reduced cell viability”, the “number of cells with neurites twice the length of the cell” value ([4]; 24-hour treatment) was “decrease” and the “total number of neurites per field” value ([4]; 24-hour treatment) was “decrease”. For the same compound, the viable cells ([4]; 24-hour treatment) was “decrease” and the medulloblastoma cell survival (medulloblastoma cell) was “reduced medulloblastoma cell survival by inducing apoptosis”.

In the case of `O=c1c(-c2ccc(O)cc2)coc2cc(O)cc(O)c12` [genistein], the “nuclear Arc protein level” value (nuclear Arc protein) is given as “enhance nuclear Arc protein level above the control measure” and the “percentage of nuclei” value (nuclear Arc) is given as “moderate increase”.

In the case of `O=c1cc(-c2ccccc2)oc2c(O)c(O)ccc12` [7,8-DHF, 7,8-dihydroxyflavone], the “nuclear Arc protein level” value (nuclear Arc protein) is listed as “enhance nuclear Arc protein level above the control measure”.

In the case of `COc1cc(-c2cc(=O)c3c(O)c(C/C=C(\C)CCC=C(C)C)c(O)cc3o2)ccc1O` [cannflavin A], the cell migration (U87 GBM cells [5]) was “reduce the migration”, the cell migration (A172 GBM cells [6]) was “reduce the migration” and the “Arc mRNA abundance” value (Arc mRNA) was “prevent induction of Arc mRNA expression”. For the same compound, the “cell viability (AlamarBlue)” value (A172 GBM cells [1]) was “reduced cell viability”, the “LDH release / cell necrosis” value (U87 GBM cells [7]) was “slight increase in LDH release” and the GBM cell invasion (A172 GBM cells [2]) was “reduce invasion”. For the same compound, the “anti-inflammatory potency relative to aspirin” value [8] was “thirty times more potent than aspirin”, the “LDH release / cell necrosis” value (A172 GBM cells [9]) was “slight increase in LDH release” and the “agonist activity on GPCRs” value [10] was “no effect on any of the 322 different GPCRs tested”. For the same compound, the “concentrations resulting in significantly less Arc protein abundance than the BDNF-alone control” value (Arc protein) was 10 to 20 µM, the “cell viability (AlamarBlue)” value (U87 GBM cells [3]) was “reduced cell viability” and the BDNF-induced neurite outgrowths [4] was “reduce”. For the same compound, the P-Akt level [11] was “sharply reduced”, the P-MAPK level [11] was “sharply reduced” and the P-mTOR level [11] was “sharply reduced”. For the same compound, the P-rpS6 level [11] was “sharply reduced”.

In the case of `O=C(O)[C@H]1O[C@@H](Oc2cc3oc(-c4ccccc4)cc(=O)c3c(O)c2O)[C@H](O)[C@@H](O)[C@@H]1O` [baicalin], the “nuclear Arc protein level” value (nuclear Arc protein) is listed as “enhance nuclear Arc protein level above the control measure”.

In the case of `Oc1cc(O)c2c(c1)O[C@H](c1cc(O)c(O)c(O)c1)[C@H](O)C2` [ECGC, (−)-epigallocatechin], the “nuclear Arc protein level” value (nuclear Arc protein) is listed as “enhance nuclear Arc protein level above the control measure” and the “percentage of nuclei” value (nuclear Arc) is listed as “moderate increase”.

For `COc1cc(-c2cc(=O)c3c(O)c(CC=C(C)C)c(O)cc3o2)ccc1O` [cannflavin B], the cell migration (U87 GBM cells [5]) was “reduce the migration”, the cell migration (A172 GBM cells [6]) was “reduce the migration” and the “Arc mRNA abundance” value (Arc mRNA) was “prevent induction of Arc mRNA expression”. For the same compound, the “cell viability (AlamarBlue)” value (A172 GBM cells [1]) was “reduced cell viability”, the “LDH release / cell necrosis” value (U87 GBM cells [7]) was “slight increase in LDH release” and the “increase of GPR150 activity from baseline” value (GPR150) was 4.4 fold-change. For the same compound, the GBM cell invasion (A172 GBM cells [2]) was “decrease in GBM cell invasion”, the “efficiency in reducing cell invasion compared with the other TrkB inhibitors” value (A172 GBM cells [2]; no statistical scores) was “tends to be more efficient in reducing cell invasion than cannflavin A and ANA-12” and the “anti-inflammatory potency relative to aspirin” value [8] was “thirty times more potent than aspirin”. The “LDH release / cell necrosis” value (A172 GBM cells [9]) was “slight increase in LDH release”, the “concentrations resulting in significantly less Arc protein abundance than the BDNF-alone control” value (Arc protein) was 1 to 20 µM and the “cell viability (AlamarBlue)” value (U87 GBM cells [3]) was “reduced cell viability”. For the same compound, the BDNF-induced neurite outgrowths [4] was “reduce”, the P-Akt level [11] was “sharply reduced” and the P-MAPK level [11] was “sharply reduced”. For the same compound, the P-mTOR level [11] was “sharply reduced” and the P-rpS6 level [11] was “sharply reduced”.
